According to ChEMBL document CHEMBL1146131, “3D-QSAR studies of farnesyltransferase inhibitors: a comparative molecular field analysis approach” (Bioorg Med Chem Lett, 2006):

What follows are molecules tested against Protein farnesyltransferase (Homo sapiens, UniProt P49354+P49356) (assay: Inhibition of FTase).
Type: protein-complex assay

Row | IC50 [nM] | SMILES
1 | 759 | Cn1cncc1C(OCc1ccc(C#N)cc1C(=O)Nc1cccc(Cl)c1)c1ccc(C#N)cc1 (stereo not given)
2 | 1120 | Cn1cncc1C(OCc1ccc(C#N)cc1-c1cccc(Cl)c1)c1ccc(C(F)(F)F)cc1 (stereo not given)
3 | 1200 | CCOc1ccc(-c2cc(C#N)ccc2COC(c2ccc(C#N)cc2)c2cncn2C)cc1 (stereo not given)
4 | 35500 | COc1cccc(-c2cc(NS(C)(=O)=O)ccc2COC(c2ccc(C#N)cc2)c2cncn2C)c1 (stereo not given)
5 | 15100 | N#Cc1ccc(C(OCc2ccc(C#N)cc2-c2ccc3c(c2)OCO3)c2cnccc2Cl)cc1 (stereo not given)
6 | 13200 | COC(=O)c1ccc(COC(c2ccc(C#N)cc2)c2cncn2C)c(-c2cccc(OC)c2)c1 (stereo not given)
7 | 891 | Cn1cncc1C(OCc1ccc(C#N)cc1NS(=O)(=O)c1cccs1)c1ccc(C#N)cc1 (stereo not given)
8 | 776 | Cn1cncc1C(OCc1ccc(C#N)cc1-c1cccc(Cl)c1)c1ccc(C#N)cc1F (stereo not given)
9 | 1120 | Cn1cncc1C(OCc1ccc(C#N)cc1-c1ccc2c(c1)OC(F)(F)O2)c1ccc(C#N)cc1 (stereo not given)
10 | 617 | Cn1cncc1C(OCc1ccc(C#N)cc1NCc1cc(F)cc(F)c1)c1ccc(C#N)cc1 (stereo not given)
11 | 977 | COc1cccc(-c2cc(C#N)ccc2COC(c2ccc(C#N)c(Cl)c2)c2cncn2C)c1 (stereo not given)
12 | 1120 | CCOc1cccc(-c2cc(Cl)ccc2COC(c2ccc(C#N)cc2)c2cncn2C)c1 (stereo not given)
13 | 813 | Cn1cncc1C(OCc1ccc(Cl)cc1-c1cccc(Cl)c1)c1ccc(C#N)cc1 (stereo not given)
14 | 2040 | Cc1ncc(C(OCc2ccc(C#N)cc2-c2cccc(Cl)c2)c2ccc(C#N)cc2)n1C (stereo not given)
15 | 11200 | COCC(=O)Nc1ccc(COC(c2ccc(C#N)cc2)c2cncn2C)c(-c2cccc(OC)c2)c1 (stereo not given)
16 | 912 | COc1cccc(-c2cc(Cl)ccc2COC(c2ccc(C#N)cc2)c2cncn2C)c1 (stereo not given)
17 | 871 | Cn1cncc1C(OCc1ccc(C#N)cc1-c1ccc2c(c1)OCO2)c1ccc(C#N)cc1 (stereo not given)
18 | 4900 | Cn1cncc1C(OCc1ccc(Cl)cc1-c1ccc(Cl)cc1)c1ccc(C#N)cc1 (stereo not given)
19 | 2630 | Cn1cncc1C(OCc1ccc(C#N)cc1NS(=O)(=O)c1cccc2ccccc12)c1ccc(C#N)cc1 (stereo not given)
20 | 871 | Cn1cncc1C(OCc1ccc(C#N)cc1-c1cccc(Cl)c1)c1ccc(C#N)cc1 (stereo not given)

Row | IC50 [nM] | SMILES
21 | 5010 | Cn1cncc1C(OCc1ccc(C#N)cc1NC(=O)c1ccccc1)c1ccc(C#N)cc1 (stereo not given)
22 | 977 | COc1ccc(-c2cc(C#N)ccc2COC(c2ccc(C#N)cc2)c2cncn2C)cc1 (stereo not given)
23 | 191 | COCc1cccc(-c2cc(C#N)ccc2COC(c2ccc(C#N)cc2)c2cncn2C)c1 (stereo not given)
24 | 447 | Cn1cncc1C(OCc1ccc(C#N)cc1-c1cccc(Cl)c1)c1ccc(C#N)c(F)c1 (stereo not given)
25 | 955 | Cn1cncc1C(OCc1ccc(C#N)cc1-c1cccc2ccccc12)c1ccc(C#N)cc1 (stereo not given)
26 | 1000 | Cn1cncc1C(OCc1ccc(C#N)cc1-c1cc(F)cc(F)c1)c1ccc(C#N)cc1 (stereo not given)
27 | 851 | Cn1cncc1C(OCc1ccc(C#N)cc1-c1cccc(OC(F)(F)F)c1)c1ccc(C#N)cc1 (stereo not given)
28 | 1120 | Cc1ccc(-c2cc(C#N)ccc2COC(c2ccc(C#N)cc2)c2cncn2C)cc1 (stereo not given)
29 | 1120 | COc1cccc(-c2cc([N+](=O)[O-])ccc2COC(c2ccc(C#N)cc2)c2cncn2C)c1 (stereo not given)
30 | 1620 | Cc1ncc(C(OCc2ccc(C#N)cc2-c2ccc3c(c2)OCO3)c2ccc(C#N)cc2)n1C (stereo not given)
31 | 40700 | COc1cccc(-c2cc(N)ccc2COC(c2ccc(C#N)cc2)c2cncn2C)c1 (stereo not given)
32 | 2040 | COc1cccc(-c2cc(C#N)ccc2COC(c2ccc(Cl)cc2)c2cncn2C)c1 (stereo not given)
33 | 1620 | COc1cccc(-c2cc(C=O)ccc2COC(c2ccc(C#N)cc2)c2cncn2C)c1 (stereo not given)
34 | 1000 | Cc1ccc(S(=O)(=O)Nc2cc(C#N)ccc2COC(c2ccc(C#N)cc2)c2cncn2C)cc1 (stereo not given)
35 | 4070 | N#Cc1ccc(C(OCc2ccc(C#N)cc2-c2cccc(Cl)c2)c2cncs2)cc1 (stereo not given)
36 | 83200 | COc1cccc(-c2cc(C(=O)O)ccc2COC(c2ccc(C#N)cc2)c2cncn2C)c1 (stereo not given)
37 | 5250 | Cn1cncc1C(OCc1ccc(C#N)cc1-c1cccc2cccnc12)c1ccc(C#N)cc1 (stereo not given)
38 | 8910 | Cn1cncc1C(OCc1ccc(Cl)cc1-c1ccccc1Cl)c1ccc(C#N)cc1 (stereo not given)
39 | 2240 | Cn1cncc1C(OCc1ccc(C#N)cc1C(=O)Nc1ccccc1)c1ccc(C#N)cc1 (stereo not given)
40 | 692 | CCOc1cccc(-c2cc(C#N)ccc2COC(c2ccc(C#N)cc2)c2cncn2C)c1 (stereo not given)
